The assay deals with athletes. Put plainly: comparative study of amino acids mixture, creatine and placebo in athletes: bench press, squat, braked bicycle ergometer. The format is in vivo, humans. An excerpt:
The effects on energy balance of the an amino acids mixture according to the invention as above indicated were the subject of a comparative study with creatine, on a weight ratio (w/w), or with no treatment, on a large group of volunteers submitted to a rigid protocol of alimentation and training. […] In some athletes, also heart frequency rate and VO2 max were registered while performing a treadmill test, before arid at the end of this study.

Where [1] appears, read: after one month of treatment and training, mixture 24 g/d, creatine 25 g/d.

From US20030187049A1, “Compositions based on aminoacids, suitable for improving muscle performance” (priority 2003, published 2003) come the findings set out here.

Each structure is given as a SMILES string.

Take `CN(CC(=O)O)C(=N)N` [creatine]: under “after one month”, the “performances over basal and no treatment group” value is recorded as “significant improvements of performances”. For the same compound, under setting [1], the “Bench press” value was determined as 177 ± 34 kg, the “Squat Room.” value is 148.5 ± 31.2 kg and the “Watt/Kg max (maximal power productive performance on a braked bicycle ergometer)” value is 9.8 ± 0.6 watt/kg max.
